# Source: US20230157993A1, “PHARMACEUTICAL COMPOSITION FOR TREATING OR PREVENTING ALOPECIA INCLUDING DECURSIN” (University-Industry Cooperation Group of Kyung Hee …, priority 2021, published 2023)
# Key:
# [1] = test system: hair follicles of dorsal skin tissues; assay: Histological analysis (H&E) of dorsal skin hair follicles in CYP-induced alopecia mice; format: in vivo, C57BL/6J mice; details: topical decursin, FIG. 2
# Procedure: (§1) All animal testing procedures were approved by the Laboratory Animal Care and Use Committee of Kyung Hee University (KHUASP(SE)-13-046). 5-week-old male C57BL/6J mice were purchased from Raonbio Co., Ltd. (Yongin, Korea). All mice were kept in plastic cages at 22±1° C. under 50±5% humidity with 12 hours of light-dark cycles. After 1 week of adaptation, mice were randomly assigned to 6 groups: (1) CTR, normal control group, (2) CYP, cyclophosphamide-induced alopecia group, (3) DEX, dexamethasone (DEX) treated in CYP-induced alopecia mice as positive controls, (4) D1, 1 μM decursin treated in CYP-induced alopecia mice, (5) D10, 10 μM decursin treated in CYP-induced alopecia mice, and (6) D100, 100 μM decursin treated in CYP-induced alopecia mice.
# (§2) To synchronize the phases of the hair growth cycle, the dark hairs on the dorsal skin of all mice except the CTR group were shaved on day 0 using a shaving cream. 9 days later, 150 mg/kg of CYP (Sigma-Aldrich, MO, USA) was dissolved in saline and injected one time intraperitoneally into all mice except the CTR group. Injection of CYP induced the stage of hair follicles to turn into dystrophic catagen. From day 9 to day 16, 100 μL of 1, 10 and 100 μM decursin (Sigma-Aldrich) in saline containing 0.1% dimethyl sulfoxide was topically treated onto the shaved dorsal skin once a day. […]
# PI3K = assay: Expression of PI3K in decursin-treated keratinocytes; format: cell-based, Human; details: TNF-α
# caspase-7 = assay: Immunoblotting of caspase-7 in TNF-α-stimulated HaCaT keratinocytes; format: cell-based, Human; details: HaCaT cells; 10 nM decursin; 100 ng/mL TNF-α, 24 hours; FIG. 5
# Procedure: (§3) Human keratinocyte HaCaT cells were grown at 37° C. under atmosphere with 95% humidity in the presence of 5% CO2, in Dulbecco's modified Eagle's medium (DMEM, Gibco; Thermo Fisher Scientific, Inc., Waltham, Mass., USA) supplemented with 10% v/v fetal bovine serum (FBS, Gibco), 2 mM glutamine, 100 IU/ml penicillin, and 100 μg/mL of streptomycin (Gibco). HaCaT cells were dispensed into 6-well plates by 1×10^6 cells/wells. After stabilization, 1 μM DEX and 0.1, 1, and 10 nM decursin were treated in the presence of 100 ng/mL of TNF-α for 24 hours.
# (§4) Proteins were extracted from the collected skin tissues and HaCaT cells using RIPA lysis buffer (Tech & Innovation, Gangwon, Korea) containing a protease inhibitor cocktail (Roche, Hoffmann, USA). Lysates were quantified by the Bradford method and denatured with dodecyl sulfate buffer at 98° C. for 5 minutes. Proteins were electrophoresed onto a polyvinylidene fluoride membrane. The membranes were incubated continuously with primary anti-caspase-3, -7, and -8, followed with secondary HRP-conjugated anti-rabbit and anti-mouse antibodies.
# caspase-8 = assay: Immunoblotting of caspase-8 in TNF-α-stimulated HaCaT keratinocytes; format: cell-based, Human; details: HaCaT cells; 10 nM decursin; 100 ng/mL TNF-α, 24 hours; FIG. 5
# Procedure: as §3, §4
# [2] = test system: keratinocyte growth factor (KGF); assay: Immunofluorescence assay of KGF+ expression in dorsal skin tissue of CYP-induced alopecia mice; format: in vivo, C57BL/6J mice; details: CIA mice, FIG. 3
# Procedure: as §1
# To synchronize the phases of the hair growth cycle, the dark hairs on the dorsal skin of all mice except the CTR group were shaved on day 0 using a shaving cream. 9 days later, 150 mg/kg of CYP (Sigma-Aldrich, MO, USA) was dissolved in saline and injected one time intraperitoneally into all mice except the CTR group. Injection of CYP induced the stage of hair follicles to turn into dystrophic catagen. From day 9 to day 16, 100 μL of 1, 10 and 100 μM decursin (Sigma-Aldrich) in saline containing 0.1% dimethyl sulfoxide was topically treated onto the shaved dorsal skin once a day. As a positive control, 0.1% DEX was administered topically to the shaved area on days 1, 3, 5, 7, and 9 to 16. Physiological saline was treated to the CTR and CYP groups during the experiment. […] on day 17, all mice were sacrificed under anesthesia.
# Paraffin tissue sections were hydrated with xylene and ethanol, followed by blocking with 1% bovine serum albumin (BSA). The slides were incubated overnight at 4° C. with primary anti-rabbit keratinocyte growth factor (KGF) antibody. Secondary HRP-conjugated fluorescent antibody was treated onto tissue slides for 1 hour at room temperature.
# p38 = assay: Expression of p38 in decursin-treated keratinocytes; format: cell-based, Human; details: TNF-α
# [3] = test system: keratinocyte growth factor (KGF); assay: Immunoblotting of KGF protein expression in skin tissues of CYP-induced alopecia mice; format: in vivo, C57BL/6J mice; details: CIA mice; 100 μM decursin topical; FIG. 4
# [4] = test system: CYP-induced alopecia mice; assay: Skin monitoring of hair growth with a digital dermatoscope in CYP-induced alopecia mice; format: in vivo, C57BL/6J mice; details: topical, all concentrations of decursin (1, 10, 100 μM) or 0.1% DEX, FIG. 1
# Procedure: as §1, §2
# AKT = assay: Expression of AKT in decursin-treated keratinocytes; format: cell-based, Human; details: TNF-α
# ERK = assay: Expression of ERK in decursin-treated keratinocytes; format: cell-based, Human; details: TNF-α
# caspase-3 = assay: Immunoblotting of caspase-3 in TNF-α-stimulated HaCaT keratinocytes; format: cell-based, Human; details: HaCaT cells; 10 nM decursin; 100 ng/mL TNF-α, 24 hours; FIG. 5
# Procedure: as §3, §4
structure (smiles),measurement,setting,value
CC(C)=CC(=O)O[C@H]1Cc2cc3ccc(=O)oc3cc2OC1(C)C [decursin],hair follicle cycle stage (histology),[1],hair follicles were in the anagen
same,"shape of the ampulla of hair follicles, compared to CYP group",[1],normalized
same,expression of PI3K,PI3K,suppression
same,rate of decrease of TNF-α-induced caspase-7 protein level,caspase-7,48.27%
same,rate of decrease of TNF-α-induced caspase-8 protein level,caspase-8,41.07%
same,KGF+ expression in the skin tissue (immunofluorescence),[2]; 1 μM decursin topical,increased
same,KGF+ expression in the skin tissue (immunofluorescence),[2]; 10 μM decursin topical,increased
same,KGF+ expression in the skin tissue (immunofluorescence),[2]; 100 μM decursin topical,increased
same,expression of p38,p38,suppression
same,protein expression of KGF in skin tissues,[3],significantly increased
same,"hair growth on the dorsal side (dermatoscope), compared to CYP group",[4],hair growth was observed
same,expression of AKT,AKT,suppression
same,expression of ERK,ERK,suppression
same,rate of decrease of TNF-α-induced caspase-3 protein level,caspase-3,30.41%
